Data as given in US8796289B2 (AbbVie Inc., priority 2011, dated 2014).

What follows are compounds tested against GST-tagged-Wee1 kinase (Homo sapiens, UniProt P30291) (assay: Wee1 time-resolved fluorescence equilibrium binding assay (displacement of Oregon Green-labeled ATP-competitive kinase probe)).
GST-tagged-Wee1 kinase, sequence (P30291 whole entry): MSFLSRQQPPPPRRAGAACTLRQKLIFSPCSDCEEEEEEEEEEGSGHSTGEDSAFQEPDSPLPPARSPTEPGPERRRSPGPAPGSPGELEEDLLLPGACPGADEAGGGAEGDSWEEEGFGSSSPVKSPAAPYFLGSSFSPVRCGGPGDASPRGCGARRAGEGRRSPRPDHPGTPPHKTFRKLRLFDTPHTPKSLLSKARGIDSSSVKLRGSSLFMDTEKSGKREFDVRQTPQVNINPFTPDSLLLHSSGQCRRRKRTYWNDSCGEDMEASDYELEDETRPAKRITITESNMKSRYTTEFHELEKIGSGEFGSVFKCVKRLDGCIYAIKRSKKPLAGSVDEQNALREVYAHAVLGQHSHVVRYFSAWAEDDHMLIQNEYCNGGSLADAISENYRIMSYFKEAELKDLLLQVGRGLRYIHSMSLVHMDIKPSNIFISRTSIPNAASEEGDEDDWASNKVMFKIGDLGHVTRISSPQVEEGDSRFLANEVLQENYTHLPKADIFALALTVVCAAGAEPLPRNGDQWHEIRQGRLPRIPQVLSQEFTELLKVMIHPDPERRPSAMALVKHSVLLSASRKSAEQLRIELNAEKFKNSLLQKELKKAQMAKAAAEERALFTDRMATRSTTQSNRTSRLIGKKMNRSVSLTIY
Procedure: Wee1 kinase was assayed using a time-resolved fluorescence equilibrium binding assay monitoring displacement of a rapidly reversible Oregon Green-labeled ATP-competitive kinase probe (N-(2-(2-(2-(4-(4-(5-chloro-4-(2-(1-hydroxycyclobutyl)thiazol-5-yl)-1H-pyrrolo[2,3-b]pyridin-2-yl)phenyl)piperazin-1-yl)ethoxy)ethoxy)ethyl)-2′,7′-difluoro-3′,6′-dihydroxy-3-oxo-3H-spiro[isobenzofuran-1,9′-xanthene]-5-carboxamide) by competitive Wee1 inhibitors.
With `CN1CCN(c2ccc(Nc3ncc4c(=O)n(-c5c(Cl)cccc5Cl)nc(-c5nccs5)c4n3)cc2)CC1` [Example 316, 6-(2,6-dichlorophenyl)-2-{[4-(4-methylpiperazin-1-yl)phenyl]amino}-8-(1,3-thiazol-2-yl)pyrimido[4,5-d]pyridazin-5(6H)-one] the Ki was 1.8 nM.
`CN1Cc2cc(Nc3ncc4c(=O)n(-c5c(Cl)cccc5Cl)nc(-c5cncs5)c4n3)ccc2C2(CC2)C1` [Example 317, 6-(2,6-dichlorophenyl)-2-[(2′-methyl-2′,3′-dihydro-1′H-spiro[cyclopropane-1,4′-isoquinolin]-7′-yl)amino]-8-(1,3-thiazol-5-yl)pyrimido[4,5-d]pyridazin-5(6H)-one] was tested, and the Ki was 0.38 nM.
`O=c1c2cnc(Nc3ccc4c(c3)CNCC4)nc2c(-c2cncs2)nn1-c1c(Cl)cccc1Cl` [Example 318, 6-(2,6-dichlorophenyl)-2-(1,2,3,4-tetrahydroisoquinolin-7-ylamino)-8-(1,3-thiazol-5-yl)pyrimido[4,5-d]pyridazin-5(6H)-one] showed a Ki of 0.26 nM.
In the case of `O=c1c2cnc(Nc3ccc(N4CCNCC4)cc3)nc2c(-c2cncs2)nn1-c1c(Cl)cccc1Cl` [Example 319, 6-(2,6-dichlorophenyl)-2-{[4-(piperazin-1-yl)phenyl]amino}-8-(1,3-thiazol-5-yl)pyrimido[4,5-d]pyridazin-5(6H)-one], the Ki is reported as 0.39 nM.
In the case of `CN1Cc2cc(Nc3ncc4c(=O)n(-c5c(Cl)cccc5Cl)nc(-c5nccs5)c4n3)ccc2C2(CC2)C1` [Example 320, 6-(2,6-dichlorophenyl)-2-[(2′-methyl-2′,3′-dihydro-1′H-spiro[cyclopropane-1,4′-isoquinolin]-7′-yl)amino]-8-(1,3-thiazol-2-yl)pyrimido[4,5-d]pyridazin-5(6H)-one], the Ki is reported as 0.49 nM.
`O=c1c2cnc(Nc3ccc(N4CCN(C5COC5)CC4)cc3)nc2c(-c2ccncc2)nn1-c1c(Cl)cccc1Cl` [Example 321, 6-(2,6-dichlorophenyl)-2-({4-[4-(oxetan-3-yl)piperazin-1-yl]phenyl}amino)-8-(pyridin-4-yl)pyrimido[4,5-d]pyridazin-5(6H)-one] gave a Ki of 0.8 nM.
With `CN1CCC(n2nc(-c3ccccn3)c3nc(Nc4ccc(N5CCNCC5)cc4)ncc3c2=O)CC1` [Example 322, 6-(1-methylpiperidin-4-yl)-2-{[4-(piperazin-1-yl)phenyl]amino}-8-(pyridin-2-yl)pyrimido[4,5-d]pyridazin-5(6H)-one] the Ki was > 3140 nM.
`CN1CCN(c2ccc(Nc3ncc4c(=O)n(-c5c(Cl)cccc5Cl)ncc4n3)cc2)CC1` [Example 323, 6-(2,6-dichlorophenyl)-2-{[4-(4-methylpiperazin-1-yl)phenyl]amino}pyrimido[4,5-d]pyridazin-5(6H)-one] gave a Ki of 0.49 nM.
Work on `CN1Cc2cc(Nc3ncc4c(=O)n(-c5c(Cl)cccc5Cl)ncc4n3)ccc2C2(CC2)C1` [Example 324, 6-(2,6-dichlorophenyl)-2-[(2′-methyl-2′,3′-dihydro-1′H-spiro[cyclopropane-1,4′-isoquinolin]-7′-yl)amino]pyrimido[4,5-d]pyridazin-5(6H)-one] yielded a Ki of 0.2 nM.
With `O=c1c2cnc(Nc3ccc(N4CCNCC4)cc3)nc2cnn1-c1c(Cl)cccc1Cl` [Example 325, 6-(2,6-dichlorophenyl)-2-{[4-(piperazin-1-yl)phenyl]amino}pyrimido[4,5-d]pyridazin-5(6H)-one] the Ki was 0.7 nM.
`O=c1c2cnc(Nc3ccc4c(c3)CNCC43CC3)nc2cnn1-c1c(Cl)cccc1Cl` [Example 326, 6-(2,6-dichlorophenyl)-2-(2′,3′-dihydro-1′H-spiro[cyclopropane-1,4′-isoquinolin]-7′-ylamino)pyrimido[4,5-d]pyridazin-5(6H)-one] gave a Ki of 0.53 nM.
With `O=c1c2cnc(Nc3ccc4c(c3)CNCC4)nc2cnn1-c1c(Cl)cccc1Cl` [Example 327, 6-(2,6-dichlorophenyl)-2-(1,2,3,4-tetrahydroisoquinolin-7-ylamino)pyrimido[4,5-d]pyridazin-5(6H)-one] the Ki was 0.93 nM.
